From US8309685B2 (Celgene Avilomics Research, Inc., priority 2007, dated 2012)
Like-named read-outs stand apart in the source and are kept apart here.

Legend:
[1] = molecular target: T1, D168A mutant of the HCV NS3/4A 1b protease enzyme (Hepatitis C virus genotype 1b, UniProt P26663, D1194A); assay: HCV Protease FRET Assay (IC50_APP), D168A mutant; type: biochemical
T1 construct: 10× stocks of NS3/4A protease enzyme from Bioenza (Mountain View, Calif.); purchased Bioenza (Mountain View, Calif.)

[2] = molecular target: T1, D168A mutant of the HCV NS3/4A 1b protease enzyme; assay: HCV Protease FRET Assay (IC50), D168A mutant; type: biochemical
[3] = molecular target: T2, wild type HCV NS3/4A 1b protease enzyme (Hepatitis C virus genotype 1b, UniProt P26663); assay: biochemical; type: biochemical; details: read-out: Inhibition, WT; WT enzyme, FRET assay
T2 construct: 10× stocks of NS3/4A protease enzyme from Bioenza (Mountain View, Calif.); purchased Bioenza (Mountain View, Calif.)

[4] = molecular target: T2, wild type HCV NS3/4A 1b protease enzyme; assay: HCV Protease FRET Assay (IC50_APP), wild type; type: biochemical; details: read-out: IC50_APP, WT; apparent IC50, wild type NS3/4A 1b
[5] = test system: cell line ET (luc-ubi-neo/ET), human Huh7 hepatoma cell line; assay: Method A: cytotoxicity in ET replicon cells (CytoTox-1); type: cell-based; details: concentration decreasing cell viability by 50%, 72 hr
Procedure, shortened: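 ET cells (Huh7 carrying luciferase HCV replicon), 5×10^3 cells/well, given six 3-fold compound concentrations in DMEM with 5% FBS. After 72 hr, while subconfluent, cell number was measured with CytoTox-1 reagent. Interferon alpha-2b served as positive control.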

[6] = test system: HCV RNA replicon in cell line ET (luc-ubi-neo/ET), human Huh7 hepatoma; assay: Method A: HCV RNA replicon antiviral assay (luciferase, ET cell line); type: cell-based, Hepatitis C virus; details: Hepatitis C virus, Huh-7
Procedure, shortened: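 Six 3-fold dilutions of each drug were tested on subconfluent luc-ubi-neo/ET Huh7 replicon cells (5×10^3/well) for 72 hr at 37 °C. EC50 and EC90 came from luciferase read-out, IC50 from CytoTox-1 cell number, and […]; interferon alpha-2b was run each time as control.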

[7] = molecular target: T3, A156T mutant of the HCV NS3/4A 1b protease enzyme (Hepatitis C virus genotype 1b, UniProt P26663, A1182T); assay: HCV Protease FRET Assay (IC50_APP), A156T mutant; type: biochemical
T3 construct: 10× stocks of NS3/4A protease enzyme from Bioenza (Mountain View, Calif.); purchased Bioenza (Mountain View, Calif.)

[8] = apparent IC50, D168A mutant; read-out: IC50_APP, HCV D168A
[9] = read-out: Inhibition, HCV D168A, D168A enzyme, FRET assay
[10] = Replicon, assay of Example 22, 72 hr, read-out: Inhibition, Replicon
[11] = assay described in Example 22, read-out: Replicon (IC50)
[12] = apparent IC50, A156T mutant; read-out: IC50_APP, HCV A156T

| SMILES | IC50 [1, 8] [nM] | IC50 ([2]; read-out: Comparative IC50 Values, D168A, biochemical assay) [nM] | IC50 [2, 9] [nM] | IC50 [3] [nM] | IC50 [4] [nM] | Inhibition, Cytotoxicity [5] | IC50 [6, 10] [nM] | IC50 ([6]; WT, cell-based assay, methods of the Examples, read-out: Comparative IC50 Values, WT) [nM] | IC50 [6, 11] [nM] | IC50 [7, 12] [nM] | IC50 ([1]; read-out: IC50_APP, HCV D168A; apparent IC50, D168A mutant) [nM] | IC90 ([6]; assay described in Example 22) [nM] | IC50 ([7]; read-out: IC50_APP, HCV A156T; apparent IC50, A156T mutant) [nM] |
| --- | --- | --- | --- | --- | --- | --- | --- | --- | --- | --- | --- | --- | --- |
| C=CC(=O)NC[C@H](NC(=O)OC(C)(C)C)C(=O)N1C[C@H](Oc2cc(-c3ccccc3)nc3cc(OC)ccc23)C[C@H]1C(=O)N[C@]1(C(=O)NS(=O)(=O)c2ccccc2)C[C@H]1C=C [Compound I-3, N-[(1,1-dimethylethoxy)carbonyl]-3-[(2-propenoyl)amino]-L-alanyl-(4R)-4-[(7-methoxy-2-phenyl-4-quinolinyl)oxy]-L-prolyl-1-amino-2-ethenyl-N-(phenylsulfonyl)-(1R,2S)-cyclopropanecarboxamide] | 1000 to 10000 | 45 | 10 to 100 | < 10 | < 10 | E (IC50≧10,000 nM) | 10 to 100 | 20 | 10 to 100 | 1000 to 10000 | – | – | – |
| C=C[C@@H]1C[C@]1(NC(=O)[C@@H]1C[C@@H](Oc2cc(-c3ccccc3)nc3cc(OC)ccc23)CN1C(=O)[C@H](CNC(=O)CCl)NC(=O)OC(C)(C)C)C(=O)NS(=O)(=O)c1ccccc1 [Compound I-7, N-[(1,1-dimethylethoxy)carbonyl]-3-[(chloroacetyl)amino]-L-alanyl-(4R)-4-[(7-methoxy-2-phenyl-4-quinolinyl)oxy]-L-prolyl-1-amino-2-ethenyl-N-(phenylsulfonyl)-(1R,2S)-cyclopropanecarboxamide] | – | – | 10 to 100 | < 10 | < 10 | E (IC50≧10,000 nM) | 10 to 100 | – | 10 to 100 | – | 100 to 1000 | 100 to 1000 | 100 to 1000 |
| C=CC(=O)NCC(=O)N1C[C@H](Oc2cc(-c3ccccc3)nc3cc(OC)ccc23)C[C@H]1C(=O)N[C@]1(C(=O)NS(=O)(=O)c2ccccc2)C[C@H]1C=C [Compound I-27, (2S,4R)-1-(2-acrylamidoacetyl)-4-(7-methoxy-2-phenylquinolin-4-yloxy)-N-((1R,2S)-1-(phenylsulfonylcarbamoyl)-2-vinylcyclopropyl)pyrrolidine-2-carboxamide] | 100 to 1000 | – | 10 to 100 | < 10 | < 10 | D (IC50>1000 nM and <10,000 nM) | 10 to 100 | – | 100 to 1000 | 100 to 1000 | – | 100 to 1000 | – |
